Columns and labels:
Experiment in all cases: Inhibition Assay of PI3K
[1] = biological target: Phosphatidylinositol 4,5-bisphosphate 3-kinase catalytic subunit beta isoform (Homo sapiens, UniProt P42338)
[2] = biological target: Phosphatidylinositol 4,5-bisphosphate 3-kinase catalytic subunit gamma isoform (Homo sapiens, UniProt P48736)
[3] = biological target: Phosphatidylinositol 4,5-bisphosphate 3-kinase catalytic subunit alpha isoform (Homo sapiens, UniProt P42336)
[4] = biological target: T1, Phosphatidylinositol 4,5-bisphosphate 3-kinase catalytic subunit delta isoform (Homo sapiens, UniProt O00329)
T1 sequence (O00329 whole entry): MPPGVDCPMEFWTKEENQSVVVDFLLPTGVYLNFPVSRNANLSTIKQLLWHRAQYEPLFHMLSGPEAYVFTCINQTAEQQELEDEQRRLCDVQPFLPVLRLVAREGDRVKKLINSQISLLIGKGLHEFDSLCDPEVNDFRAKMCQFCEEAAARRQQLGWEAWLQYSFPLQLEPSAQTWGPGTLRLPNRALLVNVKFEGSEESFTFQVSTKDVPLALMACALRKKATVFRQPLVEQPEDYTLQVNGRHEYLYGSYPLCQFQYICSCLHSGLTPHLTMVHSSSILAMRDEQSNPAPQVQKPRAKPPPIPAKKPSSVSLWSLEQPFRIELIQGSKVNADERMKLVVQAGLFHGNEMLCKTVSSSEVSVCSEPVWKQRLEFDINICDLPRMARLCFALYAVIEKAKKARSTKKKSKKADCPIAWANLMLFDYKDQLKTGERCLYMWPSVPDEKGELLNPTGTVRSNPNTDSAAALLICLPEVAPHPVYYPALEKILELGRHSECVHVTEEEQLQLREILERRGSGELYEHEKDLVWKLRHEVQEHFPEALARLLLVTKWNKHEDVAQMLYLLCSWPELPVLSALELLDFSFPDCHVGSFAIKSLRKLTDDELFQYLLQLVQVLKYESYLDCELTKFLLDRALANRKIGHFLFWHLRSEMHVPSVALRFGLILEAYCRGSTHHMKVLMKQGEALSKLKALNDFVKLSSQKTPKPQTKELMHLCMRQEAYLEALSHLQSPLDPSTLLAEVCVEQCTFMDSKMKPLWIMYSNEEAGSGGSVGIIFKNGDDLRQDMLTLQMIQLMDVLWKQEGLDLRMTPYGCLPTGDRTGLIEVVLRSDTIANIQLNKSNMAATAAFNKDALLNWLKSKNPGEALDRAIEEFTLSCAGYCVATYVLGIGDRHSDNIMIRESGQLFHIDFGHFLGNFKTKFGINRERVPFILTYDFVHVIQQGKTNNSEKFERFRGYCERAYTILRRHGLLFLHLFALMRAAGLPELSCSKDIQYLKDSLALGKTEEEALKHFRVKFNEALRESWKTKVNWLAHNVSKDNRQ

Measured: IC50

Chain of Phosphatidylinositol 4,5-bisphosphate 3-kinase catalytic subunit gamma isoform (P48736 whole entry, canonical isoform): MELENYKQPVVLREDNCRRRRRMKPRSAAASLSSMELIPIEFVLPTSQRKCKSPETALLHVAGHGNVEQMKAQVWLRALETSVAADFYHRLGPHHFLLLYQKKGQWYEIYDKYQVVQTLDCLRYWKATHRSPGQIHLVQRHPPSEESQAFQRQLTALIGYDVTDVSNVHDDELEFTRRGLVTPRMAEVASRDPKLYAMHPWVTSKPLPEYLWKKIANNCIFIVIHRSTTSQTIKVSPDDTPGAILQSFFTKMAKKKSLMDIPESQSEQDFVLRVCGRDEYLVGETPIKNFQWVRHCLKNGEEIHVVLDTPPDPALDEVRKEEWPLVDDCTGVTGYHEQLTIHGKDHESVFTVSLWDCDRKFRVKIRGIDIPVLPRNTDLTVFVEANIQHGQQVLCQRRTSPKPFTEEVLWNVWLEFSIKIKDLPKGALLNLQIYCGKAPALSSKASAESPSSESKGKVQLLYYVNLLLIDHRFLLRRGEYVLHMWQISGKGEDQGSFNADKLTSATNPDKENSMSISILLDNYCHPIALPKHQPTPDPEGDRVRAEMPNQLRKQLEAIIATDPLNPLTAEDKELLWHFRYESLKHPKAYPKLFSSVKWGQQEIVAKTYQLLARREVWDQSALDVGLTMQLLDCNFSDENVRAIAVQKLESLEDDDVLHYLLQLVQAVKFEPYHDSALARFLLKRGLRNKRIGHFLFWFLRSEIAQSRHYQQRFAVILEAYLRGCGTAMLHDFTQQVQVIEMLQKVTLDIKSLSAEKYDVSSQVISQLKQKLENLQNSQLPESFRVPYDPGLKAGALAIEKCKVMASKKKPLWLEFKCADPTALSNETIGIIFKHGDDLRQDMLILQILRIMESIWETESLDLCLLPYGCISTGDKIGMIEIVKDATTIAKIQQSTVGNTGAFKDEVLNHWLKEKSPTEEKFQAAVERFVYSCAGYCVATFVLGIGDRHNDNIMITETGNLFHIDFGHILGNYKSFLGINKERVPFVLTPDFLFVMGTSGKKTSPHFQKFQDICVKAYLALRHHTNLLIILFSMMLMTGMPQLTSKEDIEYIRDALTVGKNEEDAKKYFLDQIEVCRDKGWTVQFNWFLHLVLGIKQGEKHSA
Chain of Phosphatidylinositol 4,5-bisphosphate 3-kinase catalytic subunit beta isoform (P42338 whole entry, canonical isoform): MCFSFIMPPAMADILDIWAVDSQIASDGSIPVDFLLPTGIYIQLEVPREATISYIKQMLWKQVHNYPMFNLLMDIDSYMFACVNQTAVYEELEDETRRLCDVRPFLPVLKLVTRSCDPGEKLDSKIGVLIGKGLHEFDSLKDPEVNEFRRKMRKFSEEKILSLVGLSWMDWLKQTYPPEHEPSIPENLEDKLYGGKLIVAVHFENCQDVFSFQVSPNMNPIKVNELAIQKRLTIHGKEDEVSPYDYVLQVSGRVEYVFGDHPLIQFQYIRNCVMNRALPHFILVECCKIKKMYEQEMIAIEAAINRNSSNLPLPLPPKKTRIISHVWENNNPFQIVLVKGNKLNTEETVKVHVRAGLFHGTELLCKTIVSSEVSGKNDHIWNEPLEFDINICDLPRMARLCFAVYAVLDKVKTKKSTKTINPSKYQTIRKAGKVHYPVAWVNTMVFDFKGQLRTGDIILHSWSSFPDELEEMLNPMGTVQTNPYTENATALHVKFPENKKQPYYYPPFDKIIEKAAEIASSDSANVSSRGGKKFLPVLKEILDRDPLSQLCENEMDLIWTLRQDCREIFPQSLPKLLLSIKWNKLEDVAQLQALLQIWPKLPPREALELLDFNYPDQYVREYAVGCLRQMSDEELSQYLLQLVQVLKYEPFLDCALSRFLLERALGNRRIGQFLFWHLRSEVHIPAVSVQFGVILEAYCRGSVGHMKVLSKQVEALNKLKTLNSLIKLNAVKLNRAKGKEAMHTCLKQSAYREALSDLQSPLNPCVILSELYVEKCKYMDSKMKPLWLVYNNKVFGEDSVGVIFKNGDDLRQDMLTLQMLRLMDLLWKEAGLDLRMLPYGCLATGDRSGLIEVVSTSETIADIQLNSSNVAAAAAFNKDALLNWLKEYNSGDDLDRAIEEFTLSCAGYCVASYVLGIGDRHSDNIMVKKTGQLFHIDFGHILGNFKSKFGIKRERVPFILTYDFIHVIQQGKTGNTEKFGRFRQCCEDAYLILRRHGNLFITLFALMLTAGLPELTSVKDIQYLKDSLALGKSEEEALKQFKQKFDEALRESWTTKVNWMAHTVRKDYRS
Chain of Phosphatidylinositol 4,5-bisphosphate 3-kinase catalytic subunit alpha isoform (P42336 whole entry, canonical isoform): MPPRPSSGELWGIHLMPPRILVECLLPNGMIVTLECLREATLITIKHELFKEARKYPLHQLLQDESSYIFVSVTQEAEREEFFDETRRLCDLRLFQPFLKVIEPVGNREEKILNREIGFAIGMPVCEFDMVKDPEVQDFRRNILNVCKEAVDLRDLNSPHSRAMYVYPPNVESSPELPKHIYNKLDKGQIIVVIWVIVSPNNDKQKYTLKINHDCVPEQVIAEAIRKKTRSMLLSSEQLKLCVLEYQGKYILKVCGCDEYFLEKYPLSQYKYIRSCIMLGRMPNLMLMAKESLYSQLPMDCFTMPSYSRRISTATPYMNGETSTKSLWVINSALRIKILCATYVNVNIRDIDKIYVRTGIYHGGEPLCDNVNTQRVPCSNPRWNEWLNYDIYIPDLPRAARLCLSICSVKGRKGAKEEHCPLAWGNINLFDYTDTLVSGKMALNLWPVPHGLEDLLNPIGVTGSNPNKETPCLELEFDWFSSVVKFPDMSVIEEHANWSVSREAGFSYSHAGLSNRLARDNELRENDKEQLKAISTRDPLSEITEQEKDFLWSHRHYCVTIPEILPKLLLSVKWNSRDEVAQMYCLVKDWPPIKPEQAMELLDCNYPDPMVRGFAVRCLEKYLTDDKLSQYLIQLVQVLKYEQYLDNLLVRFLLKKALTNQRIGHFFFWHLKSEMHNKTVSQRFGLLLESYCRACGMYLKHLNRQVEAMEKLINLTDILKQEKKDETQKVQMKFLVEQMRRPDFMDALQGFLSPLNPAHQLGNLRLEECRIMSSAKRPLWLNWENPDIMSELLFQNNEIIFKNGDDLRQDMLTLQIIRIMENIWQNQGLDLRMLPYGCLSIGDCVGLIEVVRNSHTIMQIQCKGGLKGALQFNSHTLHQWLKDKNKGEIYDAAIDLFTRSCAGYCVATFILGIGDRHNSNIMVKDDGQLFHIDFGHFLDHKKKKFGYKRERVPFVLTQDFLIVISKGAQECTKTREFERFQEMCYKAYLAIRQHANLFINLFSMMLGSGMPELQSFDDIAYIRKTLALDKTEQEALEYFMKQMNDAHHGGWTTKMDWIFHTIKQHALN

Nc1nc2cc(-c3cccc4[nH]nc(N)c34)ccc2o1 [US11547697, Compound 236]
> 10 µM: [1] | [2] | [3]

O=C(c1cnc2ccc(-c3ccc4oc(Nc5ccccc5)nc4c3)cn12)N1CCOCC1 [US11547697, Compound 407]
> 10 µM: [4] | [2] | [3]

Cc1nc2ccc(-c3ccc4oc(N)nc4c3)cn2c1C(=O)N1CCN(C)CC1 [US11547697, Compound 91]
> 10 µM: all assays above

CC(=O)Nc1cn2cc(-c3ccc4nccc(-c5ccncc5)c4c3)ccc2n1 [US11547697, Compound 19]
> 10 µM: all assays above

CS(=O)(=O)Nc1cccc(-c2ccc3ncc(C(=O)N4CCOCC4)n3c2)c1 [US11547697, Compound 443]
> 10 µM: all assays above

COc1ccc(-c2ccc3ncc(C(=O)N4CCOCC4)n3c2)cc1NS(C)(=O)=O [US11547697, Compound 456]
> 10 µM: all assays above

Nc1nc2cc(-c3ccc4[nH]nc(N)c4c3)ccc2o1 [US11547697, Compound 427]
> 10 µM: all assays above

Cc1c(-c2ccc3ncc(N4CC(N5CCOCC5)C4)nc3c2)ccc2oc(N)nc12 [US11547697, Compound 362]
> 10 µM: all assays above

Nc1noc2cc(-c3ccc4ncc(C(=O)N5CCOCC5)n4c3)ccc12 [US11547697, Compound 488]
> 10 µM: all assays above

COc1ccc(CNc2n[nH]c3cc(-c4ccc5oc(N)nc5c4)ccc23)cc1 [US11547697, Compound 429]
> 10 µM: all assays above

C[C@H]1CN(c2cnc3cccc(-c4ccc5nc(N)oc5c4)c3n2)CCN1 [US11547697, Compound 343]
> 10 µM: [4] | [2] | [3]

CN1CCN(C(=O)c2cnc3cnc(-c4ccc5oc(N)nc5c4)cn23)CC1 [US11547697, Compound 123]
> 10 µM: [4] | [1] | [2]

Nc1cn2cc(-c3ccc4nc(N)oc4c3)ccc2n1 [US11547697, Compound 247]
> 10 µM: [4] | [3]

Nc1nc2cc(-c3ccc4ncc(C(=O)N5CCOCC5)cc4c3)ccc2o1 [US11547697, Compound 97]
> 10 µM: [4] | [1] | [2]

Nc1ncc(-c2cnc3ccc(-c4ccc5oc(N)nc5c4)cc3n2)cn1 [US11547697, Compound 210]
> 10 µM: [4] | [1] | [2]

Nc1nc2cc(-c3ccc4ncc(-c5ccc(N6CCOCC6)nc5)nc4c3)ccc2o1 [US11547697, Compound 167]
> 10 µM: [4] | [1] | [2]

Nc1ncc(-c2ccc3oc(N)nc3c2)cn1 [US11547697, Compound 233]
> 10 µM: [4] | [1] | [3]

COc1ncc(-c2ccc3ncc(C(=O)N4CCOCC4)n3c2)cc1N [US11547697, Compound 414]
> 10 µM: [4] | [1] | [2]

Nc1nc2cc(-c3ccc4ncc(C(=O)N5CCOCC5)n4c3)c(Cl)cc2o1 [US11547697, Compound 370]
> 10 µM: [4] | [1] | [2]

Nc1nc2cc(-c3ccc4ncc(C(=O)N5CCOCC5)nc4c3)ccc2o1 [US11547697, Compound 158]
> 10 µM: [4] | [1] | [2]

CN(C)CCn1cnc2ccc(-c3ccc4oc(N)nc4c3)cc2c1=O [US11547697, Compound 292]
> 10 µM: [4] | [1] | [2]

CC1(C)COCCN1C(=O)c1cnc2ccc(-c3ccc4oc(N)nc4c3)cn12 [US11547697, Compound 514]
> 10 µM: [4] | [1] | [2]

Nc1nc2cc(-c3ccc4ncc(-c5ccccc5)nc4c3)ccc2o1 [US11547697, Compound 180]
> 10 µM: [4] | [1] | [2]

Cc1nc(NC(=O)N2CCC[C@H]2C(N)=O)sc1-c1ccc2oc(N)nc2c1 [US11547697, Compound 311]
> 10 µM: [4] | [1] | [2]

CC(=O)Nc1nc2cc(-c3ccc4oc(N)nc4c3)ccc2s1 [US11547697, Compound 250]
> 10 µM: [4] | [1] | [3]

CS(=O)(=O)Nc1cc(-c2ccc3ncc(C(=O)N4CCOCC4)n3c2)ccc1Cl [US11547697, Compound 460]
> 10 µM: [4] | [1] | [2]

CCN(CC)CCn1cnc2ccc(-c3ccc4oc(N)nc4c3)cc2c1=O [US11547697, Compound 224]
> 10 µM: [4] | [1] | [2]

Nc1nc2cc(-c3ccc4ncn(C5CCCC5)c(=O)c4c3)ccc2o1 [US11547697, Compound 256]
> 10 µM: [4] | [1] | [2]

O=C(c1cnc2ccc(-c3ccc4oc(NC5CC5)nc4c3)cn12)N1CCOCC1 [US11547697, Compound 409]
> 10 µM: [4] | [1] | [2]

Nc1nsc2c(-c3ccc4ncc(C(=O)N5CCOCC5)n4c3)cccc12 [US11547697, Compound 474]
> 10 µM: [4] | [1] | [2]

Nc1nc2ccc(-c3ccc4ncn(C5CCOCC5)c(=O)c4c3)cc2o1 [US11547697, Compound 63]
> 10 µM: [4] | [1] | [2]

CCN1CCN(c2cnc3ccc(-c4ccc5oc(N)nc5c4)cc3n2)C(=O)C1 [US11547697, Compound 391]
> 10 µM: [4] | [1] | [2]
